Measurements from patent US8703479B2, “Technology and method to study microbial growth and adhesion to host-related surfaces and the host-microbiota interaction” (Universiteit Gent, priority 2009, dated 2014).

Legend:
[1] = polycarbonate membrane, 200 μm-thick mucus layer, room temperature
Method: The adhesion module was built with a functional double layer separating the completely anaerobic upper chamber (95% N2-5% CO2) from the aerobic lower chamber (95% O2-5% CO2). Oxygen concentration in the upper chamber was measured by means of a Hach Lange luminescent LDO oxygen probe. Experiments were conducted at room temperature with a 200 μm-thick mucus layer using a polycarbonate or a polyamide membrane.

[2] = Adhesion of a pure bacterial culture to the mucus-covered layer of the adhesion module; conditions: contact time […]
Method: A first objective of working with the in vitro adhesion module is to explore the adhesion potential of pure cultures of gut microorganisms vs mixed microbial communities onto a mucus-covered layer. A culture of Lactobacillus rhamnosus GG was grown in relevant medium and inoculated in the luminal chamber of the adhesion module. The luminal chamber of a second system was inoculated with an in vitro adapted microbial community originated from the ascending colon of a Simulator of the Human Intestinal Microbial Ecosystem (SHIME) reactor. The adhesion module consisted of a luminal chamber containing the growth medium and the inoculated bacterial strain and a basal chamber from which oxygen could diffuse across a semi-permeable polycarbonate membrane, which was covered on its luminal side with a mucin layer, relevant for the specific region of the gastrointestinal tract. The contact time between the inoculated bacteria and the functional layer was established in 1.5 h. […] The obtained suspension was analyzed for microbial concentration using plate counts specific for different bacterial groups. […] Although not further analyzed at this moment, also the medium and optionally present cells of the basal chamber can be sampled and analyses can be conducted to estimate the simulated host's cellular response.

[3] = system: suspension of the ascending colon compartment of a SHIME system; test: Adhesion potential of a mixed microbial community under short-term prebiotic treatment in the adhesion module; conditions: ascending colon SHIME suspension in luminal chamber, data not shown
Excerpt: A second objective of working with the in vitro adhesion module is to explore the adhesion potential of selected microbial cultures in the presence of a complex microbial community relevant for the terminal ileum and colon respectively and to evaluate the host cellular response towards this community. To this end, a suspension of the ascending colon compartment of a SHIME system was sampled and inoculated in the luminal chamber of the adhesion module in presence of inulin with a degree of polymerization between 2 and 20, and arabinoxylans (AX) with a degree of substitution of 0.7, and a strongly varying degree of polymerization (on average 200). The short-term effect of these functional foods was evaluated.

[4] = system: mucin-adhered microbiota of the SHIME; test: Long-term prebiotic treatment in the SHIME with adhesion modules, plate counts, Adhesion Related Prebiotic Index; design: species or system human; conditions: 2.5 g/L; for Adhesion Related Prebiotic Index (AR-PI): mucin-adhered microbial community, plate counts before and after the treatment
Excerpt: The aim of this study was to evaluate the effect of known prebiotic compounds (inulin and arabinoxylan—AX) on the microbiota associated with the gut wall in different areas of the GI tract and under long-term representative conditions. For this purpose, the adhesion module was used together with a well-validated gastrointestinal model—the Simulator of the Human Intestinal Microbial Ecosystem (SHIME). Clearly, the inherent adhesion potency, the specific growth rate, the state of mucus layer and interaction with endogenous microorganisms (adhered or in suspension) determined the microbial potency to colonize the intestinal epithelium.
The reactor setup is adapted from the system, representing the gastrointestinal tract of the adult human, as described by Molly et al. (1993). The SHIME consists of a succession of five reactors simulating the different parts of the human gastrointestinal tract. The first two reactors are of the fill-and-draw principle to simulate different steps in food uptake and digestion, with peristaltic pumps adding a defined amount of SHIME feed (140 mL 3×/day) and pancreatic and bile liquid (60 mL 3×/day), respectively to the stomach (V1) and duodenum (V2) compartment and emptying the respective reactors after specified intervals. The last three compartments are continuously stirred reactors with constant volume and pH control. Retention time and pH of the different vessels are chosen in order to resemble in vivo conditions in the different parts of the gastrointestinal tract. The overall residence time of the last three vessels, simulating the large intestine, is 76 h. Upon inoculation with fecal microbiota, these reactors simulate the ascending (V3), transverse (V4) and descending (V5) colon. Inoculum preparation, retention time, pH, temperature settings and reactor feed composition were previously described by Possemiers et al. (2004). […]
During the basal period, the SHIME reactor is operated under nominal conditions. Parameters such as short chain fatty acid (SCFA) production and ammonium production are determined 3 times/week and plate count analyses are performed once a week for selected bacterial groups (total (an) aerobes, total Clostridia, lactobacilli, bifidobacteria, total coliforms, staphylococci). The results of these analyses serve as the background values to be used to compare the measured parameters from the treatment period. […]
During the treatment period, the SHIME reactor is operated under nominal conditions, but with a modified diet containing a lower amount of starch in the medium compared to that of the basal period and the effect of a specific compound (inulin or arabinoxylan—2.5 g/L) is tested. SCFA and ammonium production are determined 3 times/week and plate count analysis is performed once a week. […]

O=O [Oxygen]
relative diffusion coefficient (DO2) [1]: 9.8.10^−6 cm^2/sec

Lactobacillus rhamnosus GG
factor by which adhesion to the mucin-agar layer is higher than to mucin-free agar [2]: 6.19 | percentage adhesion ([2]; mucin-agar layer, plate counts): 15.7±3.2%

arabinoxylan [AX]
effect on adhesion capacity of the investigated bacterial groups [3]: decreased the adhesion capacity of all the investigated groups | effect on the luminal and mucin-associated bacteria compared to that of inulin ([4]; long-term SHIME treatment): stronger and more permanent | stimulation of the adhered lactobacilli ([4]; long-term SHIME treatment): particularly potent | Adhesion Related Prebiotic Index (AR-PI) [4]: 70

inulin
effect on adhesion capacity of the investigated bacterial groups [3]: less or no influence | Adhesion Related Prebiotic Index (AR-PI) [4]: 14
